According to patent publication US20140272041A1, “METHODS OF REDUCING PATHOGENS DURING PROCESSING OR POST-PROCESSING OF BEEF, POULTRY AND OTHER MEAT PRODUCTS” (BIRKO Corporation, priority 2009, published 2014):

How the values were obtained:
Type in all cases: cell-based, Escherichia coli
E. coli SAC-2 [1] = test: Log kill / surviving titer in aqueous bacterial suspension, plating on TSA; conditions: for Log Kill (Lactic Acid + Surfactant): surfactant 0.2% in 2.5% lactic acid; for Log Kill (TSA): lactic acid alone, plated on TSA
Description: In each instance a target sample was employed using approximately 50 micro liters of an SAC-2 culture. E. coli “SAC-2,” was a Gram-negative strain isolated from municipal sewage. The tests were performed at room temperature, i.e., 75 deg. F. […] The results of each test sample were evaluated using a series of 10-fold dilutions as needed to determine, on a standard plating agar (TSA), the titer of bacteria that survived the antimicrobial treatment.
The same procedure was employed as in Example 2, but the only agent added to the target solution was Niaproof 08. No lactic acid was employed.
The mixture was then diluted and plated as previously described.
Increasing amounts of reagent were added to a series of test tubes. […] The bacterial titer of each mixture was determined by preparation and plating of serial dilutions on TSA.
[…] […] The amphoteric and zwitterionic surfactants, which carry a net positive charge under the conditions of the reaction mixture, caused enhancement of the log kill by lactic acid. All anionic surfactants tested caused substantial enhancement of the log kill by lactic acid.

E. coli ATCC 12435 = test: as above; conditions: for Log Kill (Lactic Acid + Surfactant): 15 seconds, 74 to 80 degrees F.; for Log Kill (TSA): lactic acid alone, plated on TSA
Description: The “reaction” (i.e. interaction of antimicrobial agent and the target organism) was initiated by the addition of bacteria to the antimicrobial solution. The reaction was allowed to proceed for the respective time periods listed in Table I (i.e., at least 15 seconds each) and was terminated at the end of that time by adding quench buffer comprising 3.2 M potassium phosphate buffer, pH 7.2. The sample then was evaluated using serial 10-fold dilutions into sterile phosphate buffer as needed to determine, on Tryptic Soy agar (“TSA”), the titer of surviving bacteria. TSA is a medium that allows the growth of most bacteria.
The reduction in the bacterial count is expressed as the “log kill” which is defined as log10 [initial cfu/ml]−log10 [remaining cfu/ml]; where “cfu” refers to “colony forming unit.” All log kills reported herein are positive “base 10.”). Inasmuch as the standard assay mixture contained only ca. 25×10^6 cfu initially (equivalent to 7.398 log) the theoretical maximum kill that can be measured with this assay system is ca. 7.4 log and the practical measuring limit is ca. 6 log. Therefore, high levels of log reduction were monitored by plating reaction mixtures directly (without dilution) onto agar medium. The results are reported in Table I and illustrated in graph format in FIG. 1. […] The tests were replicated with E. coli ATCC 43888, a pathogenic strain of E. coli O157:H7. […]
After incubation for 15 seconds at ambient temperature the reaction was quenched by addition of phosphate buffer and the titer of surviving bacteria was determined by plating on TSA as described in the previous examples. […] The amphoteric and zwitterionic surfactants, which carry a net positive charge under the conditions of the reaction mixture, caused enhancement of the log kill by lactic acid. All anionic surfactants tested caused substantial enhancement of the log kill by lactic acid.

E. coli ATCC 14235 = test: Log kill in aqueous bacterial suspension, plating on TSA; conditions: lactic acid alone, ca. 75 deg. F.
Description: The tests were performed at ambient temperature (ca. 75 deg. F.). The “reaction” (i.e. interaction of antimicrobial agent and the target organism) was initiated by the addition of bacteria to the antimicrobial solution. The reaction was allowed to proceed for the respective time periods listed in Table I (i.e., at least 15 seconds each) and was terminated at the end of that time by adding quench buffer comprising 3.2 M potassium phosphate buffer, pH 7.2. The sample then was evaluated using serial 10-fold dilutions into sterile phosphate buffer as needed to determine, on Tryptic Soy agar (“TSA”), the titer of surviving bacteria. TSA is a medium that allows the growth of most bacteria.
The reduction in the bacterial count is expressed as the “log kill” which is defined as log10 [initial cfu/ml]−log10 [remaining cfu/ml]; where “cfu” refers to “colony forming unit.” All log kills reported herein are positive “base 10.”). Inasmuch as the standard assay mixture contained only ca. 25×10^6 cfu initially (equivalent to 7.398 log) the theoretical maximum kill that can be measured with this assay system is ca. 7.4 log and the practical measuring limit is ca. 6 log. Therefore, high levels of log reduction were monitored by plating reaction mixtures directly (without dilution) onto agar medium. The results are reported in Table I and illustrated in graph format in FIG. 1. […] The tests were replicated with E. coli ATCC 43888, a pathogenic strain of E. coli O157:H7.

[2] = system: E. coli ATCC 43888 (O157:H7); test: as above; conditions: for Lactic Acid (Log Kill): 2.5% lactic acid, 73 deg. F.; for Log Kill: lactic acid alone, ca. 75 deg. F., TSA
E. coli SAC-2 [3] = test: Lactic acid treatment followed by contact with surfactant (bile salts) on VRBA; conditions: quenched, then plated on VRBA (bile salts, neutral pH)
Description: (§1) VRBA was designed for the enumeration of coliform bacteria by selecting against most other common bacteria. The principal difference between TSA and VRBA—besides the presence of indicator dyes in VRBA—is the inclusion of bile salts in the VRBA. Historically, bile salts were added to media used to culture intestinal bacteria in order to mimic the intestinal environment more closely. Bile salts also happen to be anionic surfactants.
(§2) Plating of serial dilutions of E. coli SAC-2 made in dilute phosphate buffer (pH 7.2) on VRBA was completed in less than 15 minutes after termination of individual reaction mixtures by addition of quench buffer (phosphate, pH 7.2). Thus, contact with the surfactant in VRBA was made in less than 15 minutes and more than 8 minutes after reaction termination.

E. coli ATTC 12435 = test: as above; conditions: quenched, then plated on VRBA (bile salts, neutral pH)
Description: as §1, §2
The observations were confirmed with E. coli ATTC 12435 as follows: […]

E. coli ATCC 43888 = test: Reaction mixture streak plate, visual observation; conditions: 2.5 wt. % lactic acid only (Niaproof 08 0), room temperature
Description: The tests were performed at room temperature.

[4] = 15 seconds, 74 to 80 degrees F.
[5] = surfactant 0.2% in 2.5% lactic acid
[6] = 2.5 wt. % lactic acid only (Niaproof 08 0.00)

Compound: phosphate ester of polyoxyalkylated fatty alcohol [Klearfac AA270]
- Log Kill (Lactic Acid + Surfactant) (E. coli SAC-2 [1]; [4]): 2.56 log
- Log Kill (Lactic Acid + Surfactant) (E. coli ATCC 12435; [5]): 6.31 log

Compound: coconut based imidazoline, dicarboxylate, sodium salt [Amphoterge K2]
- Log Kill (Lactic Acid + Surfactant) (E. coli ATCC 12435; [5]): 2.86 log

Compound: coco amidoalkyl betaine [Norfox CAPB]
- Log Kill (Lactic Acid + Surfactant) (E. coli ATCC 12435; 0.1% CAPB in 2.5% lactic acid): 6.25 log

Compound: ethoxylated nonylphenol [T-Det N 9.5]
- Log Kill (Lactic Acid + Surfactant) (E. coli SAC-2 [1]; [4]): 0.18 log

Compound: CC(O)C(=O)O (centres unmarked) [Lactic Acid, lactic acid, reference compound]
- Log Kill (E. coli ATCC 14235; 15 secs): 1.431 log
- Log Kill (E. coli ATCC 14235; 30 secs): 2.217 log
- Log Kill (E. coli ATCC 14235; 45 secs): 3.246 log
- Log Kill (E. coli ATCC 14235; 60 secs): 3.722 log
- in 2.5% Lactic Acid (Log Kill) ([2]; 2.5% lactic acid only (sodium lauryl sulfate 0)): 2.2 log
- Lactic Acid (Log Kill) ([2]; pH 2.19, 20 secs.): 2.44 log
- Lactic Acid (Log Kill) ([2]; pH 2.42, 20 secs.): 2.71 log
- Lactic Acid (Log Kill) ([2]; pH 2.59, 20 secs.): 1.81 log
- Lactic Acid (Log Kill) ([2]; pH 2.74, 20 secs.): 1.21 log
- Lactic Acid (Log Kill) ([2]; pH 2.86, 20 secs.): 0.732 log
- Lactic Acid (Log Kill) ([2]; pH 3.24, 20 secs.): 0.117 log
- Lactic Acid (Log Kill) ([2]; pH 3.67, 20 secs.): 0.041 log
- in […] Lactic Acid (Log Kill) ([2]; […] lactic acid only (sodium lauryl sulfate 0), 15 seconds, 75 degrees F.): 0.403 log
- Log Kill ([2]; 15 secs): 1.24 log
- Log Kill ([2]; 30 secs): 1.76 log
- Log Kill ([2]; 45 secs): 1.89 log
- Log Kill ([2]; 60 secs): 2.63 log
- Log Kill (Lactic Acid) (E. coli SAC-2 [1]; 2.5% lactic acid only, paired control of the surfactant in that line, 15 seconds, 74 to 80 degrees F.): 0.083 log
- Enhancement Factor (log10 kill with lactic acid and surfactant divided by log10 kill with lactic acid only) (E. coli SAC-2 [1]; [6]): 1.00
- Log Kill (E. coli SAC-2 [1]; 2.5 wt. % lactic acid only (Niaproof 08 0.00), 15 seconds, room temperature): 0.456 log
- Log Kill […] Lactic Acid (E. coli SAC-2 [1]; […] lactic acid only (Niaproof 08 0.00), 15 seconds, 75 degrees F.): 0.336 log
- Log Kill (TSA) (E. coli SAC-2 [1]; 15 secs): 0.188 log
- Log Kill (TSA) (E. coli SAC-2 [1]; 30 secs): 0.439 log
- Log Kill (TSA) (E. coli SAC-2 [1]; 45 secs): 0.801 log
- Log Kill (Lactic Acid) (E. coli ATCC 12435; 2.5% lactic acid only, paired control of Niaproof 08, 15 seconds, 83 degrees F.): 2.28 log
- Enhancement Factor (E. coli ATCC 12435; [6]): 1.0
- Log Kill (E. coli ATCC 12435; [6]): 2.283 log
- Log Kill (TSA) (E. coli ATCC 12435; 15 secs): 1.431 log
- Log Kill (TSA) (E. coli ATCC 12435; 30 secs): 2.217 log
- Log Kill (TSA) (E. coli ATCC 12435; 45 secs): 3.246 log
- Log Kill (TSA) (E. coli ATCC 12435; 60 secs): 3.722 log
- Log Kill (VRBA) (E. coli SAC-2 [3]; lactic acid 15 secs): 0.509 log
- Log Kill (VRBA) (E. coli SAC-2 [3]; lactic acid 30 secs): 2.812 log
- Log Kill (VRBA) (E. coli SAC-2 [3]; lactic acid 45 secs): 3.330 log
- Log Kill (VRBA) (E. coli ATTC 12435; lactic acid 15 secs): 5.328 log
- Log Kill (VRBA) (E. coli ATTC 12435; lactic acid 30 secs): 5.328 log
- Log Kill (VRBA) (E. coli ATTC 12435; lactic acid 45 secs): 5.328 log
- Log Kill (VRBA) (E. coli ATTC 12435; lactic acid 60 secs): 5.328 log
- Description/Observation (E. coli ATCC 43888): Extensive bacterial growth.

Compound: Polyoxyethylene (20) sorbitan monooleate [Tween 80]
- Log Kill (Lactic Acid + Surfactant) (E. coli SAC-2 [1]; [4]): 0.18 log

Compound: CCCCCCCCS(=O)(=O)[O-].[Na+] [Bioterge PAS-8S, sodium octane sulfonate]
- Log Kill (Lactic Acid + Surfactant) (E. coli ATCC 12435; [5]): 6.31 log

Compound: CCCCC(CC)COC(=O)CC(C(=O)OCC(CC)CCCC)S(=O)(=O)[O-].[Na+] (centres unmarked) [Sodium dioctyl sulfosuccinate]
- Log Kill (Lactic Acid + Surfactant) (E. coli ATCC 12435; [5]): 6.67 log
